Earlier results, collected in US10086029B2, “Fermented plant extracts, methods of production and uses” (KEFIPLANT INC., priority 2006, dated 2018).

Tested on: xanthine oxidase
Conditions: glycoside versus aglycone, literature study

## C[C@@H]1O[C@@H](OC[C@H]2O[C@@H](Oc3c(-c4ccc(O)c(O)c4)oc4cc(O)cc(O)c4c3=O)[C@H](O)[C@@H](O)[C@@H]2O)[C@H](O)[C@H](O)[C@H]1O [rutine]
  Activity as inhibitor of xanthine oxidase relative to quercetine: nearly ten times less active than quercetine
